The values that follow come from ChEMBL document CHEMBL1201862, “PubChem BioAssay data set” (2004).

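48-hour exposure; five concentrations; linearly interpolated endpoints. At the GI50, growth is halved.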 Active and inactive are the calls of the source. Cut-off read from the data, not from the text of the source: active = GI50 up to about 1.1 µM and inactive = higher.

Some test systems named below: EKVX; OVCAR-8; SNB-75; NCI-H460; SN12C; HT-29; COLO 205; K562; RPMI-8226; RXF 393; SF-539; HOP-92; UO-31; HL-60; A498; HOP-62; SF-295; MOLT-4; UACC-62; OVCAR-3.
Assay in all cases: NCI-60 cell line screen, 48 h

Take `O=C(CCc1cc(-c2ccco2)n(-c2ccc([N+](=O)[O-])cc2[N+](=O)[O-])n1)Nc1ccccc1`: the GI50 with EKVX, in the assay on OVCAR-8, with SNB-75, with NCI-H460, with SN12C and with HT-29 was > 100 µM (inactive) in each case. The GI50 in the assay on COLO 205 was > 100 µM (inactive); with K562, 45.5 µM (inactive); in the assay with RPMI-8226, > 100 µM (inactive); with RXF 393 it was > 100 µM (inactive); in the assay with SF-539, > 100 µM (inactive); with HOP-92, > 100 µM (inactive). Besides, the GI50 with UO-31 is > 100 µM (inactive); in the assay with HL-60, 49.3 µM (inactive); with A498, > 100 µM (inactive); in the assay with HOP-62, > 100 µM (inactive); in the assay with SF-295 it was > 100 µM (inactive); in the assay on MOLT-4 it was 65.8 µM (inactive). Also, the GI50 in the assay on UACC-62 is > 100 µM (inactive).
On to `O=C1/C(=C/c2ccc(Cl)cc2)CCC1CCN1CCOCC1` (stereo unspecified), for which the GI50 was > 100 µM (inactive) in the assay on EKVX; > 100 µM (inactive) in the assay with OVCAR-8; > 100 µM (inactive) with SNB-75; 38.9 µM (inactive) in the assay with NCI-H460; 72.1 µM (inactive) with SN12C; 32.8 µM (inactive) in the assay on HT-29. Besides, the GI50 is 25.8 µM (inactive) with K562; 23.8 µM (inactive) in the assay on RPMI-8226; 59.3 µM (inactive) in the assay on OVCAR-3; 47.9 µM (inactive) in the assay with RXF 393; > 100 µM (inactive) in the assay with SF-539; 75.7 µM (inactive) in the assay on HOP-92. Besides, the GI50 in the assay on UO-31 was 68.7 µM (inactive); in the assay with HL-60 it was 23 µM (inactive); in the assay on A498, 61.1 µM (inactive); with HOP-62, 72.1 µM (inactive); with SF-295, > 100 µM (inactive); with MOLT-4, 26.1 µM (inactive). For the same molecule, the GI50 in the assay with UACC-62 was > 100 µM (inactive).
For `Cc1cc(=O)cc2sc3c(C)cccc3nc1-2`, the GI50 with OVCAR-8 is 27.7 µM (inactive); in the assay with SNB-75, 69.5 µM (inactive); with NCI-H460, 25.4 µM (inactive); with SN12C, 23.6 µM (inactive); in the assay on HT-29, 35.1 µM (inactive); in the assay on COLO 205, 18.4 µM (inactive). Besides, the GI50 in the assay on K562 was 23.6 µM (inactive); in the assay with RPMI-8226 it was 19.9 µM (inactive); in the assay on OVCAR-3, 15.5 µM (inactive); in the assay on RXF 393, 35.4 µM (inactive); in the assay with SF-539, 31.1 µM (inactive); with HOP-92, 22.4 µM (inactive). Moreover, the GI50 in the assay with UO-31 is 28.6 µM (inactive); with HL-60, 18.9 µM (inactive); in the assay with A498 it was 23.3 µM (inactive); in the assay on HOP-62 it was 95.3 µM (inactive); in the assay with SF-295 it was 35 µM (inactive); in the assay with MOLT-4, 14.4 µM (inactive).
Regarding `O=C(CC1Sc2ccccc2NC1=O)Nc1cccc(Cl)c1` (stereo unspecified), the GI50 in the assay on EKVX was 22.5 µM (inactive); in the assay with OVCAR-8, 26.2 µM (inactive); with SNB-75, 32.4 µM (inactive); in the assay on NCI-H460, 38.5 µM (inactive); with SN12C, 48.2 µM (inactive); with HT-29 it was 57.3 µM (inactive). Further, the GI50 is 51.8 µM (inactive) with K562; 21.7 µM (inactive) with RPMI-8226; 27 µM (inactive) in the assay on OVCAR-3; 33.3 µM (inactive) in the assay on RXF 393; 72.9 µM (inactive) in the assay on SF-539; 25.5 µM (inactive) in the assay on HOP-92. Besides, the GI50 is 28.8 µM (inactive) in the assay on UO-31; 35.6 µM (inactive) with HL-60; 28.6 µM (inactive) with A498; 59.3 µM (inactive) in the assay on SF-295; 15.9 µM (inactive) in the assay on MOLT-4; 28.3 µM (inactive) in the assay with UACC-62.
Consider `N#C/N=C1/c2ccccc2/C(=N/C#N)c2cc(CO)ccc21`, for which the GI50 in the assay with EKVX is 27.7 µM (inactive); in the assay with OVCAR-8, 37.8 µM (inactive); in the assay on SNB-75, 24.2 µM (inactive); in the assay with NCI-H460, 12.5 µM (inactive); in the assay on SN12C, 24.8 µM (inactive); with HT-29 it was 26.7 µM (inactive). The GI50 in the assay with K562 is 23.3 µM (inactive); in the assay on RPMI-8226 it was 2.95 µM (inactive); in the assay with OVCAR-3, 26.9 µM (inactive); with RXF 393, 27.6 µM (inactive); in the assay on SF-539, 51.2 µM (inactive); in the assay on HOP-92, 24.8 µM (inactive). In addition, the GI50 in the assay with UO-31 was 30.2 µM (inactive); in the assay on HL-60, 21.6 µM (inactive); in the assay with A498, 23.5 µM (inactive); in the assay with HOP-62, 42.6 µM (inactive); in the assay on SF-295, 32.6 µM (inactive); in the assay with MOLT-4 it was 16.4 µM (inactive).
Consider `S=C1SCC2CCCN12` (stereo unspecified), for which the GI50 with OVCAR-8, in the assay on SNB-75, with NCI-H460, in the assay with SN12C, in the assay on HT-29 and in the assay on COLO 205 was > 100 µM (inactive) throughout. For the same molecule, the GI50 with K562, with RPMI-8226, in the assay on RXF 393, in the assay on SF-539, in the assay with HOP-92 and in the assay with UO-31 was > 100 µM (inactive) in each case. The GI50 in the assay on HL-60, in the assay with A498, with HOP-62, in the assay on SF-295, with MOLT-4 and with UACC-62 was > 100 µM (inactive) in each case.
Regarding `CSc1c(C(N)=S)c(N)nn1-c1ccccc1`, the GI50 with EKVX, in the assay on OVCAR-8, in the assay with SNB-75, in the assay on NCI-H460, with SN12C and with HT-29 was > 100 µM (inactive) each time. Further, the GI50 in the assay with COLO 205, with K562, in the assay with RPMI-8226, with OVCAR-3, with RXF 393 and in the assay on SF-539 was > 100 µM (inactive) in each case. The GI50 with HOP-92, in the assay with UO-31, in the assay on HL-60, with A498, in the assay on MOLT-4 and with UACC-62 was > 100 µM (inactive) in each case.
As to `CCCSc1ccc2[nH]c(N3C(=O)/C(=C/c4ccco4)N=C3c3ccccc3)cc2c1`, the GI50 in the assay on EKVX is 16.9 µM (inactive); in the assay on OVCAR-8 it was > 50 µM (inactive); in the assay with SNB-75, 44 µM (inactive); in the assay on NCI-H460 it was 18.3 µM (inactive); in the assay with SN12C, 35 µM (inactive); in the assay on HT-29, 21.3 µM (inactive). Moreover, the GI50 in the assay with COLO 205 was 10.4 µM (inactive); with K562, 15.6 µM (inactive); in the assay on RPMI-8226, 16.7 µM (inactive); in the assay on OVCAR-3, 21.6 µM (inactive); in the assay on RXF 393 it was 22.9 µM (inactive); in the assay on SF-539 it was 9.42 µM (inactive). The GI50 is > 50 µM (inactive) in the assay with HOP-92; 38.3 µM (inactive) with UO-31; 11.9 µM (inactive) in the assay on HL-60; 15.4 µM (inactive) in the assay on A498; 40.7 µM (inactive) in the assay with HOP-62; 17.1 µM (inactive) in the assay on MOLT-4. Further, the GI50 in the assay with UACC-62 is 23.3 µM (inactive).
As to `COc1cccc2c1C(=O)c1c(O)c3c(c(O)c1C2=O)C[C@@](O)(C(=O)CO)CC3OC1CC(NCCOCC(OC(C)=O)OC(C)=O)C(O)C(C)O1` (stereo partly specified), the GI50 in the assay with EKVX, in the assay with OVCAR-8, with SNB-75, in the assay with NCI-H460, in the assay with SN12C and in the assay with HT-29 was < 0.01 µM (active) in each case. Further, the GI50 in the assay with K562, in the assay on RPMI-8226, in the assay on OVCAR-3, in the assay on RXF 393, in the assay on SF-539 and in the assay with HOP-92 was < 0.01 µM (active) throughout. Moreover, the GI50 is < 0.01 µM (active) with UO-31; < 0.01 µM (active) with HL-60; < 0.01 µM (active) in the assay with A498; 0.00382 µM (active) in the assay on HOP-62; 0.00973 µM (active) in the assay on SF-295; < 0.01 µM (active) in the assay with MOLT-4. Further, the GI50 with UACC-62 was 0.00498 µM (active).
As for `CC(C)(C)OC(=O)C#CC[C@H]1CCCC1/C=C/C(O)=C1/C(=O)NC(CCCNC(=O)OC(C)(C)C)C1=O` (stereo partly specified), the GI50 is 16.3 µM (inactive) with EKVX; 15.2 µM (inactive) with OVCAR-8; 32.6 µM (inactive) in the assay on SNB-75; 20.3 µM (inactive) in the assay with NCI-H460; 40.1 µM (inactive) with SN12C; 40.1 µM (inactive) in the assay with HT-29. The GI50 in the assay on COLO 205 was 17.8 µM (inactive); with K562, 36 µM (inactive); in the assay on RPMI-8226, 33.2 µM (inactive); in the assay with OVCAR-3, 31.8 µM (inactive); in the assay with RXF 393, 14.7 µM (inactive); with SF-539, 26.4 µM (inactive). Besides, the GI50 in the assay on HOP-92 was 23.7 µM (inactive); with UO-31, 33.7 µM (inactive); with HL-60 it was 33.3 µM (inactive); in the assay with A498, 45.2 µM (inactive); in the assay on HOP-62 it was 45.4 µM (inactive); in the assay with SF-295, 41.4 µM (inactive). The figures for the GI50 in the assay on MOLT-4 and with UACC-62 were 32.1 µM (inactive) and 18.3 µM (inactive), respectively.
As to `Cn1cnc([N+](=O)[O-])c1Sc1nc2ccccc2o1`, the GI50 was 10.2 µM (inactive) in the assay with EKVX; 2.82 µM (inactive) in the assay on OVCAR-8; 16.6 µM (inactive) with SNB-75; 32.3 µM (inactive) with NCI-H460; 6.78 µM (inactive) in the assay with SN12C; 3.44 µM (inactive) with HT-29. In addition, the GI50 is 1.7 µM (inactive) in the assay with COLO 205; 2.53 µM (inactive) in the assay on K562; 3.45 µM (inactive) with RPMI-8226; 5.81 µM (inactive) in the assay on OVCAR-3; 8.91 µM (inactive) in the assay with RXF 393; 9.64 µM (inactive) in the assay on SF-539. For the same molecule, the GI50 is 4.24 µM (inactive) with HOP-92; 12.2 µM (inactive) with UO-31; 1.51 µM (inactive) in the assay on HL-60; 19.3 µM (inactive) with A498; 36.8 µM (inactive) with HOP-62; 26.3 µM (inactive) with SF-295. Moreover, the figures for the GI50 with MOLT-4 and in the assay with UACC-62 were 2.52 µM (inactive) and 12.4 µM (inactive), respectively.
